{"source": "patent US10716797B2", "about": "“Steroid alkaloids and compositions and kits thereof” (priority 2013, dated 2020)", "key": {"[1]": {"system": "Listeria monocytogenes ATCC 13932 SCVs", "assay": "Time-kill experiments, Listeria monocytogenes SCV", "assay_type": "cell-based", "details": "8 μg/mL; 8 h and 24 h; hydrochloride", "protocol": "Time-kill experiments were performed in order to determine whether the effect of test compounds on SCVs of bacterial species of the Firmicutes phylum is bacteriostatic (prevents growth) or bactericidal (kills cells).\nListeria monocytogenes ATCC 13932 SCVs were produced by plating a large inoculum (˜10^5 bacterial cells) on brain heart infusion agar (BHIA) plates containing various amounts of gentamicin in order to create a selective pressure for the generation of electron transport-deficient bacteria with the SCV phenotype, which are known to be less susceptible to aminoglycoside antibiotics (e.g., gentamicin). Indeed, aminoglycosides require the proton-motive force in order to penetrate the bacterium (Bryan and Kwan, 1981). As expected, SCV isolates were collected from such selective plates and were then passaged on drug-free medium to assess stability of the SCV phenotype. SCV isolates keeping the SCV phenotype after several passages on drug-free medium were then used for experiments described below.\nOne of the L. monocytogenes SCV described above was used in time-kill experiments as described in Example 22. […] At some time-points during growth at 35° C. (225 RPM), bacteria were sampled, serially diluted and plated on BHIA for colony-forming unit (CFU) determinations (i.e., viable bacterial counts). Plates were incubated for 48 h at 35° C. […]"}, "[2]": {"system": "S. aureus SCV strain NewbouldΔhemB", "assay": "MIC by microdilution against SCV strain", "assay_type": "cell-based, Staphylococcus aureus", "protocol": "Method. The minimal inhibitory concentrations (MICs), (i.e. lowest concentration of an antimicrobial that will inhibit the visible growth of a microorganism after incubation), of test compounds were determined against the normal or SCV strains of bacterial species from the Firmicutes phylum. Briefly, MICs were determined using the microdilution method in 96-well plates (Clinical and Laboratory Standards Institute (CLSI), 2011). Bacteria were inoculated at ˜10^5-10^6 CFU/mL and incubated at 35° C. for 20 h (normal strains) or 48 h (SCVs) in brain heart infusion (BHI) broth in order to allow SCVs to reach maximal growth as previously described (Mitchell et al., 2012). Then OD595 nm was read on a microplate reader. […] In this example the range of compound concentrations tested was 0.03 to 64 μg/ml using doubling increments. Strain Staphylococcus aureus NewbouldΔhemB (hemB) was also used in the experiments and is a laboratory-derived stable SCV created by the insertion of the macrolide resistance gene ermA in the hemB gene of this strain to create the SCV phenotype (defective electron transport chain and respiratory deficiency) through inactivation of hemin biosynthesis (Brouillette et al., 2004). […]"}, "[3]": {"system": "MRSA USA300", "assay": "MIC by microdilution, alone or in combination, MRSA USA300", "assay_type": "cell-based, Staphylococcus aureus", "details": "agent used alone", "protocol": "(§1) Method. The minimal inhibitory concentrations (MICs), (i.e. lowest concentration of an antimicrobial that will inhibit the visible growth of a microorganism after incubation), of test compounds were determined against the normal or SCV strains of bacterial species from the Firmicutes phylum. Briefly, MICs were determined using the microdilution method in 96-well plates (Clinical and Laboratory Standards Institute (CLSI), 2011). Bacteria were inoculated at ˜10^5-10^6 CFU/mL and incubated at 35° C. for 20 h (normal strains) or 48 h (SCVs) in brain heart infusion (BHI) broth in order to allow SCVs to reach maximal growth as previously described (Mitchell et al., 2012). Then OD595 nm was read on a microplate reader. […] In this example the range of compound concentrations tested was 0.03 to 64 μg/ml using doubling increments. Strain Staphylococcus aureus NewbouldΔhemB (hemB) was also used in the experiments and is a laboratory-derived stable SCV created by the insertion of the macrolide resistance gene ermA in the hemB gene of this strain to create the SCV phenotype (defective electron transport chain and respiratory deficiency) through inactivation of hemin biosynthesis (Brouillette et al., 2004).\n(§2) In the present Example the range of compound concentrations tested, using doubling increments, was 0.03 to 64 μg/ml for Compound 14 and up to 1024 μg/ml for gentamicin (GEN), kanamycin (KAN) and cefalexin (CEF) when these compounds were used alone. Compound 14 (Cpd 14) was used at a fixed concentration of 4 μg/ml when added to other antibiotics. The combination of CEF and KAN was used in a 3:2 ratio and doubling increments were used to test the antibacterial activity against MRSA in the absence or presence of Compound 14."}, "[4]": {"system": "S. aureus hemB (SaR2)", "assay": "MIC against tomatidine-resistant SCV mutant SaR2", "assay_type": "cell-based, Staphylococcus aureus", "protocol": "At each passage, using a microdilution method in 96-well microplates, S. aureus hemB was inoculated at ˜10^5-10^6 CFU/ml and incubated at 35° C. for 48 h. The range of tomatidine concentrations tested was 0.03 to 64 μg/ml using doubling increments. The concentration of gentamicin was fixed at 4 μg/mL when it was used in combination with tomatidine. At each passage, the minimal inhibitory concentrations (MICs) (i.e. lowest concentration of an antimicrobial that inhibits the visible growth of bacteria), of tomatidine was determined. The bacteria used as inoculum for the next passage were from the well preceeding the well showing the MIC (i.e. the well containing half the MIC). At each passage, the population of bacteria serving as the inoculum for the next passage was spread on BHI agar plates and three isolated colonies were collected and frozen until used for whole-genome sequencing."}, "[5]": {"system": "methicillin-resistant Staphylococcus aureus (MRSA) strains", "assay": "MIC against MRSA strains", "assay_type": "cell-based", "protocol": "as §1, §2"}, "[6]": {"system": "MRSA USA100", "assay": "MIC by microdilution, alone or in combination, MRSA USA100", "assay_type": "cell-based, Staphylococcus aureus", "details": "agent used alone", "protocol": "as §1, §2"}, "[7]": {"details": "compound tested alone, strain NewbouldΔhemB"}}, "note": "“Also recorded” adds a separate entry of the source.", "data": [{"substance": "3-(N-aminoethyl)-aminotomatidine hydrochloride [Compound 14]", "values": [{"measurement": "bactericidal effect on L. monocytogenes SCV (CFU)", "setting": "[1]", "value": "efficiently kills; also recorded: superior bactericidal activity"}, {"measurement": "MIC", "setting": "[2]; S. aureus hemB (SCV strain NewbouldΔhemB)", "value": 0.5, "unit": "µg/mL"}, {"measurement": "Activity of the compounds against the SCV strain (class)", "setting": "[2]; [7]", "value": "Moderate (MIC = 0.5-4 μg/mL: moderate activity)"}, {"measurement": "MIC vs SCV", "setting": "[2]; [7]", "value": "0.5 to 1", "unit": "µg/mL"}, {"measurement": "MIC", "setting": "[3]", "value": 16, "unit": "µg/mL"}, {"measurement": "Fold increase in resistance (MIC for mutant / MIC for NewbouldΔhemB)", "setting": "[4]; mutant SaR2", "value": 8, "unit": "fold"}, {"measurement": "MIC", "setting": "[4]; tomatidine-resistant mutant SaR2", "value": 4, "unit": "µg/mL"}, {"measurement": "potentiation fold on addition of Compound 14 to cefalexin:kanamycin combination", "setting": "[5]; MRSA strains resistant to both cefalexin and kanamycin", "value": 32, "unit": "fold"}, {"measurement": "MIC on MRSA strains", "setting": "[5]; used alone, tested MRSA strains (kanamycin: two of the strains)", "value": 16, "unit": "µg/mL"}, {"measurement": "MIC", "setting": "[6]", "value": 16, "unit": "µg/mL"}]}]}
